Drawing on patent US20230079045A1 (priority 2019, published 2023), this text covers EC50 for 22 compounds.

Assay [1] concerns IFVA/Mal/302/54. Kind of assay: cytopathic effect (CPE) antiviral test in MDCK cells, IFVA/Mal/302/54. In kind it is cell-based, influenza virus. Background: Protection from cytopathic effect is a common read-out in antiviral testing.
In assay [2] the test system is IFVA/Weiss/43. Kind of assay: cytopathic effect (CPE) antiviral test in MDCK cells, IFVA/Weiss/43. In kind it is cell-based, influenza virus.
[3] abbreviates: unidentified influenza virus, MDCK, 120 h, read-out: EC50(IFVA/Mal/302/54), MDCK cells, CPE method, CCK-8 cell viability, 5 days.
[4] abbreviates: unidentified influenza virus, MDCK, 120 h, read-out: EC50(IFVA/Weiss/43), MDCK cells, CPE method, CCK-8 cell viability, 5 days.
[5] abbreviates: read-out: EC50(IFVA/Mal/302/54), MDCK cells, CPE method, CCK-8 cell viability, 5 days.
[6] abbreviates: read-out: EC50(IFVA/Weiss/43), MDCK cells, CPE method, CCK-8 cell viability, 5 days.

Where two headings read alike, the source gives them in different places.

As for `O=C(Nc1ccc2oc(-c3ccnc(C(=O)N4CCN(C(c5ccccc5)c5nnn(C(F)F)n5)CC4)c3)nc2c1)[C@H]1C[C@@H]1F` (mixture of isomers) [Compound 95, (1R,2S)—N-(2-(2-(4-((R/S)-(2-(difluoromethyl)-2H-tetrazol-5-yl)(phenyl)methyl)piperazine-1-carbonyl)pyridin-4-yl)benzo[d]oxazol-5-yl)-2-fluorocyclopropane-1-carboxamide], the results for the EC50 in assay [1] (setting [3]) and in assay [2] (setting [4]) were 10 nM and 17 nM, respectively.
For `CC(=O)Nc1ccc2oc(-c3ccnc(C(=O)N4CCN(C(c5ccccc5)c5nnn(C)n5)[C@H](C)C4)c3)nc2c1` (mixture of isomers) [Compound 16a, N-(2-(2-((3R)-3-methyl-4-((2-methyl-2H-tetrazol-5-yl)(phenyl)methyl)piperazine-1-carbonyl)pyridin-4-yl)benzo[d]oxazol-5-yl)acetamide], in that order: greater than 10000 nM and 7160 nM.
For `O=C(Nc1ccc2oc(-c3ccnc(C(=O)N4CCN(C(c5ccccc5)c5nnn(C(F)F)n5)CC4)c3)nc2c1)[C@@H]1CC1(F)F` (mixture of isomers) [Compound 29, (1S)—N-(2-(2-(4-((2-(difluoromethyl)-2H-tetrazol-5-yl)(phenyl)methyl)piperazine-1-carbonyl)pyridin-4-yl)benzo[d]oxazol-5-yl)-2,2-difluorocyclopropane-1-carboxamide], in that order: 22 nM and 4 nM.
In the same order, the values of `O=C(Nc1ccc2oc(-c3ccnc(C(=O)N4CCN(C(c5ccccc5)c5nnn(C(F)F)n5)CC4)c3)nc2c1)[C@@H]1C[C@@H]1F` (mixture of isomers) [Compound 31, (1S,2S)-2-fluoro-N-(2-(2-(4-((2-difluoromethyl-2H-tetrazol-5-yl)(phenyl)methyl)piperazine-1-carbonyl)pyridin-4-yl)benzo[d]oxazol-5-yl)cyclopropane-1-carboxamide] are 7 nM and 2 nM.
With `CC(=O)Nc1ccc2oc(-c3ccnc(C(=O)N4CCN(C(c5ccccc5)c5nnn(C(F)F)n5)CC4)c3F)nc2c1` (racemic) [Compound 79, (R/S)—N-(2-(2-(4-((2-(difluoromethyl)-2H-tetrazol-5-yl)(phenyl)methyl)piperazine-1-carbonyl)-3-fluoropyridin-4-yl)benzo[d]oxazol-5-yl)acetamide], the EC50 in assay [1] (setting [3]) came out at 13 nM; in assay [2] (setting [4]) it was 7 nM.
For `Cn1ccnc1-c1ccc2oc(-c3ccnc(C(=O)N4CCN(C(c5ccccc5)c5nnn(C(F)F)n5)CC4)c3)nc2c1` (racemic) [Compound 88, (R/S)-(4-((2-(difluoromethyl)-2H-tetrazol-5-yl)(phenyl)methyl)piperazin-1-yl)(4-(5-(1-methyl-1H-imidazol-2-yl)benzo[d]oxazol-2-yl)pyridin-2-yl)methanone], in that order: 2 nM and 2 nM.
`CC(=O)Nc1ccc2nc(-c3ccnc(C(=O)N4CCN(C(c5ccccc5)c5nnn(C(F)F)n5)CC4)c3)oc2c1` (racemic) [Compound 90, (R/S)—N-(2-(2-(4-((2-(difluoromethyl)-2H-tetrazol-5-yl)(phenyl)methyl)piperazine-1-carbonyl)pyridin-4-yl)benzo[d]oxazol-6-yl)acetamide]: the EC50 worked out at 18 nM in assay [1] (setting [3]) and 28 nM in assay [2] (setting [4]).
In the same order, the values of `CCC(=O)Nc1ccc2oc(-c3ccnc(C(=O)N4CCN(C(c5ccccc5)c5nnn(C(F)F)n5)CC4)c3)nc2c1` (racemic) [Compound 96, (R/S)—N-(2-(2-(4-((2-(difluoromethyl)-2H-tetrazol-5-yl)(phenyl)methyl)piperazine-1-carbonyl)pyridin-4-yl)benzo[d]oxazol-5-yl)propionamide] are 7 nM and 12 nM.
Regarding `CC(C)C(=O)Nc1ccc2oc(-c3ccnc(C(=O)N4CCN(C(c5ccccc5)c5nnn(C(F)F)n5)CC4)c3)nc2c1` (racemic) [Compound 97, (R/S)—N-(2-(2-(4-((2-(difluoromethyl)-2H-tetrazol-5-yl)(phenyl)methyl)piperazine-1-carbonyl)pyridin-4-yl)benzo[d]oxazol-5-yl)isobutyramide], the results for the EC50 in assay [1] (setting [3]) and in assay [2] (setting [4]) were 6 nM and 7 nM, respectively.
In the same order, the values of `O=C(c1cc(-c2nc3cc(-c4cscn4)ccc3o2)ccn1)N1CCN(C(c2ccccc2)c2nnn(C(F)F)n2)CC1` (racemic) [Compound 110, (R/S)-(4-((2-(difluoromethyl)-2H-tetrazol-5-yl)(phenyl)methyl)piperazin-1-yl)(4-(5-(thiazol-4-yl)benzo[d]oxazol-2-yl)pyridin-2-yl)methanone] are 3 nM and 3 nM.
As to `O=C(Nc1ccc2oc(-c3ccnc(C(=O)N4CCN(C(c5ccccc5)c5nnn(C(F)F)n5)CC4)c3)nc2c1)C1CC1` (racemic) [Compound 196, (R/S)—N-(2-(2-(4-((2-(difluoromethyl)-2H-tetrazol-5-yl)(phenyl)methyl)piperazine-1-carbonyl)pyridin-4-yl)benzo[d]oxazol-5-yl)cyclopropanecarboxamide], the EC50 in assay [1] (setting [3]) worked out at 8 nM; in assay [2] (setting [4]), 6 nM.
For `CC(=O)Nc1ccc2oc(-c3ccnc(C(=O)N4CCN(C(c5ccccc5)c5nnn(C)n5)[C@H](C)C4)c3)nc2c1` (single isomer, unassigned) [Compound 16b], in that order: greater than 10000 nM and greater than 10000 nM.
For `O=C(Nc1ccc2oc(-c3ccnc(C(=O)N4CCN(C(c5ccccc5)c5nnn(C(F)F)n5)CC4)c3)nc2c1)C1CC1(F)F` (single isomer, unassigned) [Compound 82, (R/S)—N-(2-(2-(4-((R/S)-(2-(difluoromethyl)-2H-tetrazol-5-yl)(phenyl)methyl)piperazine-1-carbonyl)pyridin-4-yl)benzo[d]oxazol-5-yl)-2,2-difluorocyclopropane-1-carboxamide], in that order: 11 nM and 7 nM.
In the case of `Cn1nnc(C(c2ccccc2)N2CCN(C(=O)c3cc(-c4nc5cc(OC6CCOC6)ccc5o4)ccn3)CC2)n1` (stereo in doubt) [Compound 43, (4-((2-methyl-2H-tetrazol-5-yl)(phenyl)methyl)piperazin-1-yl)(4-(5-(((R)-tetrahydrofuran-3-yl)oxy)benzo[d]oxazol-2-yl)pyridin-2-yl)methanone], the EC50 in assay [1] (setting [5]) came to 10 nM; in assay [2] (setting [6]), 57 nM.
Take `CC(=O)Nc1ccc2oc(-c3ccnc(C(=O)N4CC5CCC(C4)N5C(c4ccccc4)c4nnn(C)n4)c3)nc2c1` (centres unmarked) [Compound 1, N-(2-(2-(8-((2-methyl-2H-tetrazol-5-yl)(phenyl)methyl)-3,8-diazabicyclo[3.2.1]octane-3-carbonyl)pyridin-4-yl)benzo[d]oxazol-5-yl)acetamide]: the EC50 came out at 573 nM in assay [1] (setting [3]) and 480 nM in assay [2] (setting [4]).
In the same order, the values of `Cn1nnc(C(c2ccccc2)N2CCN(C(=O)c3cc(-c4nc5cc(N6CCCC6=O)ccc5o4)ccn3)CC2)n1` (centres unmarked) [Compound 2, 1-(2-(2-(4-((2-methyl-2H-tetrazol-5-yl)(phenyl)methyl)piperazine-1-carbonyl)pyridin-4-yl)benzo[d]oxazol-5-yl)pyrrolidin-2-one] are 26 nM and less than 5 nM.
In the same order, the values of `CC(=O)Nc1ccc2oc(-c3ccnc(C(=O)N4CC5CN(C(c6ccccc6)c6nnn(C)n6)CC5C4)c3)nc2c1` (centres unmarked) [Compound 3, N-(2-(2-(5-((2-methyl-2H-tetrazol-5-yl)(phenyl)methyl)octahydropyrrolo[3,4-c]pyrrole-2-carbonyl)pyridin-4-yl)benzo[d]oxazol-5-yl)acetamide] are 1170 nM and 780 nM.
In the case of `CC(=O)Nc1ccc2oc(-c3ccnc(C(=O)N4CCN(C(c5ccccc5)c5nnn(C)n5)CC45CC5)c3)nc2c1` (centres unmarked) [Compound 5, N-(2-(2-(7-((2-methyl-2H-tetrazol-5-yl)(phenyl)methyl)-4,7-diazaspiro[2.5]octane-4-carbonyl)pyridin-4-yl)benzo[d]oxazol-5-yl)acetamide], the EC50 in assay [1] (setting [3]) stood at 24 nM; in assay [2] (setting [4]) it was 16 nM.
`CC(=O)Nc1ccc2oc(-c3ccnc(C(=O)N4C[C@H]5C[C@@H]4CN5C(c4ccccc4)c4nnn(C)n4)c3)nc2c1` (stereo partly drawn) [Compound 6a, N-(2-(2-((1R,4R)-5-((2-methyl-2H-tetrazol-5-yl)(phenyl)methyl)-2,5-diazabicyclo[2.2.1]heptane-2-carbonyl)pyridin-4-yl)benzo[d]oxazol-5-yl)acetamide]: the EC50 in assay [1] (setting [3]) is greater than 10000 nM; in assay [2] (setting [4]), greater than 7870 nM.
`CC(=O)Nc1ccc2oc(-c3ccnc(C(=O)N4C[C@H]5C[C@@H]4CN5C(c4ccccc4)c4nnn(C)n4)c3)nc2c1` (stereo partly drawn) [Compound 6b, N-(2-(2-((1R,4R)-5-((2-methyl-2H-tetrazol-5-yl)(phenyl)methyl)-2,5-diazabicyclo[2.2.1]heptane-2-carbonyl)pyridin-4-yl)benzo[d]oxazol-5-yl)acetamide]: the EC50 in assay [1] (setting [5]) and in assay [2] (setting [6]) was greater than 10000 nM in each case.
As for `CC(=O)Nc1ccc2oc(-c3ccnc(C(=O)N4CCN(C(c5ccccc5)c5nnn(C)n5)C5(CC5)C4)c3)nc2c1` (centres unmarked) [Compound 7, N-(2-(2-(4-((2-methyl-2H-tetrazol-5-yl)(phenyl)methyl)-4,7-diazaspiro[2.5]octane-7-carbonyl)pyridin-4-yl)benzo[d]oxazol-5-yl)acetamide], the results for the EC50 in assay [1] (setting [3]) and in assay [2] (setting [4]) were 841 nM and 520 nM, respectively.
On to `CC(=O)Nc1ccc2oc(-c3ccnc(C(=O)N4CC5(CCN(C(c6ccccc6)c6nnn(C)n6)CC5)C4)c3)nc2c1` (centres unmarked) [Compound 8, N-(2-(2-(7-((2-methyl-2H-tetrazol-5-yl)(phenyl)methyl)-2,7-diazaspiro[3.5]nonane-2-carbonyl)pyridin-4-yl)benzo[d]oxazol-5-yl)acetamide], for which the EC50 in assay [1] (setting [3]) and in assay [2] (setting [4]) was greater than 10000 nM in each case.
